The record followed here is US8426433B2, priority 2007, dated 2013).

The test system of the experiment is endogenous thrombin potential in diluted donor platelet-free plasma. Put plainly: ETP in plasma diluted with NaCl 0.9% plasma-substituting solution containing inhibitor. The following applies: 0.25-0.5 mcM in NaCl 0.9% solution; plasma diluted at a ratio of 1.5 to 4, FIG. 12. The experiment is classed as biochemical. The protocol:
Donor blood prepared on a 3.8% sodium citrate at a 9:1 ratio of blood to citrate (20 ml) was centrifuged for 15 minutes at 1,300 g. Some of the platelet-poor plasma (PPP) was centrifuged for another 10 minutes at 10,000 g to obtain a platelet-free plasma (PFP). The PFP thus produced was then used for measuring the endogenous thrombin potential.
PFP was diluted at a ratio of 1.5, 2, 3 and 4 with either transfusion-grade physiological saline (NaCl 0.9%) or with the same solution containing additionally a thrombin inhibitor HC-025s-IOC (at concentrations of 0.25, 0.5 or 1 mcM). For constant concentration of Ca^+2 to be maintained through the tests after recalcification, sodium citrate concentration was maintained constant in all plasma dilutions to be identical to the concentration in initial undiluted plasma, for which purpose the initial plasma-substituting solutions used to dilute the plasma were first mixed with 3.8% sodium citrate similarly with initial blood at a 9:1 solution to citrate ratio.
The plasma sample used in the above-described ETP measurement method was always diluted at a 1.5 ratio throughout. An opportunity must be provided to measure ETP in undiluted plasma in experiments to dilute plasmas with PSS. […] Endogenous thrombin potential was measured for each of the diluted plasmas in the presence of different concentrations of HC-025s-IOC.

As for `Cc1cc(OCC[n+]2ccc(N)cc2)cc(OS(=O)(=O)c2ccccc2Cl)c1.[I-]` [HC-025s-IOC, 4-amino-1-(2-(3-methyl-5-(2-chlorobenzenesulfonyloxy)phenoxy)ethyl)-pyridinium iodide], the “ETP readings for different plasma dilutions” value was “closest thing to normal”.
